The values below come from patent US7419683B2, “Method of inhibiting side effects of pharmaceutical compositions containing amphiphilic vehicles or drug carrier molecules” (United States of America as Represented by the Secretary of …, priority 1998, dated 2008).

A value given as a limit tells only on which side of the number the result lay.

In data set [1] the test system is SC5b-9. As to the kind of experiment: In vitro complement activation in human serum, SC5b-9 ELISA. Type of data set: biochemical. To be noted: for C activation (serum SC5b-9), result in words: human sera, Table 1. As for the experimental part:
Non-anticoagulated blood was drawn from healthy volunteers and from cancer patients according to protocols approved, as additions to existing protocols, by the Walter Reed Army Medical Center Human Use Committee, and by the University of Southern California (USC)/Norris Cancer Center Institutional Review Board and General Clinical Research Center. […] Blood was allowed to clot at room temperature and the serum was stored at −80° C. It was thawed and kept at 4° C. before incubation with the test agents.
To assess C activation in vitro we measured the drug-induced rise of two C split products, SC5b-9 and Bb, using ELISA kits from Quidel Corp. (San Diego, Calif.). SC5b-9 is the soluble, S-protein-bound form of the terminal complex, a sensitive measure of C5a formation through both the classical and the alternative pathways, while Bb is the proteolytically active fragment of factor B, a specific marker of C activation through the alternative pathway. The test agents were incubated with the serum in a shaking water bath (80 rpm cycle) for 30 to 60 min at 37° C. at an activator to serum volume ratio of 1:5 or 1:10. […] The reaction was stopped by adding 20 volume of the specimen diluent from the ELISA kits containing PBS, 0.05% Tween-20, protein stabilizers, and 0.01% Thimerosal.
(In an ELISA, binding on a coated surface is turned into a signal by an enzyme label.)

For data set [2], the system named is miniature pigs. To be noted: previous study; cited from earlier work.
The test system of data set [3] is liposome-induced pulmonary hypertension. As to the kind of experiment: Inhibition of liposome-induced pulmonary hypertension (PAP) in pigs. The class given is in vivo, pig. As for the experimental part: FIG. 12. The effects of complement inhibitors and indomethacin on liposome-induced pulmonary hypertension. Panel A presents the standard liposome-induced changes in PAP before and at different times after the administration of the indicated inhibitors, each in a different animal. […] Inhibitors were injected in the jugular vein in 4-8 mL PBS, at the following doses: GS1, 1.6 mg/kg (squares), sCR1, 0.2 mg/kg (open circles) and 2 mg/kg (closed circles); indomethacin, 5 mg/kg (triangles).
Experiments were-performed in accordance with the guidelines of the Committee on Animal Care of the Uniformed Services University of the Health Sciences and with the Guide for the Care and the Use of Laboratory Animals (Department of Health and Human Services, Publication No. [NIH] 86-23). Female Yorkshire swine (32-48 kg) were sedated with i.m. ketamine and anesthetized with halothane by nose cone. The trachea was intubated and anesthesia was maintained with halothane (1%). […] Systemic vascular resistance (SVR) and pulmonary vascular resistance (PVR) were calculated from SAP, PAP, CO, CVP and LVEDP, using standard formulas (Fontana, J. L. et al., 1995, Anesth. Analg. 80, 219) Blood pressure values and leads II and V5 of the electrocardiogram (ECG) were obtained continually.

Data set [4] relates to Cremophor EL-induced complement activation. As to the kind of experiment: Inhibition of Cremophor EL-induced complement activation (SC5b-9) in human serum. The class given is biochemical. To be noted: Cremophor EL 8.8 mg/ml, serum of a healthy subject. As to the method:
FIG. 4. Inhibition of Cremophor EL-induced complement activation by soluble complement receptor type 1 (sCR1): dose activity relationship. […] Serum levels of SC5b-9 were measured by enzyme-linked immunoasorbent assay, as described. Bars=mean values with 95% confidence interval, obtained from triplicate wells. The rise of SC5b-9 relative to PBS was statistically significant at *, P=0.0006 and **, P=0.002 (Student's two-sample t test, two-tailed).
To assess C activation in vitro we measured the drug-induced rise of two C split products, SC5b-9 and Bb, using ELISA kits from Quidel Corp. (San Diego, Calif.). SC5b-9 is the soluble, S-protein-bound form of the terminal complex, a sensitive measure of C5a formation through both the classical and the alternative pathways, while Bb is the proteolytically active fragment of factor B, a specific marker of C activation through the alternative pathway. The test agents were incubated with the serum in a shaking water bath (80 rpm cycle) for 30 to 60 min at 37° C. at an activator to serum volume ratio of 1:5 or 1:10. Typically, 5 μl of drug (stock) was added to 45 μl of serum placed in Eppendorf tubes. The reaction was stopped by adding 20 volume of the specimen diluent from the ELISA kits containing PBS, 0.05% Tween-20, protein stabilizers, and 0.01% Thimerosal.

Data set [5] has as its system C-mediated harmful effects. The conditions noted are these: in vitro; cited from earlier work.
In data set [6] the test system is LEH-induced complement activation. The conditions noted are these: human serum, in vitro, cited from earlier work.
The conditions of data set [7]: pigs; cited from earlier work.

Take `CC(=O)O[C@H]1C(=O)[C@@]2(C)[C@H]([C@H](OC(=O)c3ccccc3)[C@]3(O)C[C@H](OC(=O)[C@H](O)[C@@H](NC(=O)c4ccccc4)c4ccccc4)C(C)=C1C3(C)C)[C@]1(OC(C)=O)CO[C@@H]1C[C@@H]2O` [Paclitaxel, paclitaxel]: in data set [1] (paclitaxel 100 ug/mL, bar marked * in FIG. 2 (with 95% confidence interval)), the SC5b-9 is 67.4 (65.8-69) ug/ml.
Regarding `N.N.O=C([O-])C1(C(=O)[O-])CCC1.[Pt+2]` [carboplatin], the “C activation (serum SC5b-9), result in words” value (from here on “C activation”) in data set [1] is “did not cause C activation”. The SC5b-9 stood at 3.4 µg/mL in data set [1] (subject 2 (healthy donor), dose 100 μg/ml, no ethanol) and 5.5 µg/mL in data set [1] (subject 4 (cancer patient), dose 100 μg/ml, no ethanol).
`CC(=O)O[C@@]12CO[C@@H]1C[C@H](O)[C@@]1(C)C(=O)[C@H](O)C3=C(C)[C@@H](OC(=O)[C@H](O)[C@@H](NC(=O)OC(C)(C)C)c4ccccc4)C[C@@](O)([C@@H](OC(=O)c4ccccc4)[C@H]21)C3(C)C` [docetaxel]: the “C activation” value in data set [1] is “caused C activation only when the drug (formulated in Tween-80) was added to human serum together with ethanol”. Besides, the SC5b-9 in data set [1] (subject 1 (healthy donor), dose 100 μg/ml (H2O), 30 min 37° C.) turned out to be 1.8 µg/mL; in data set [1] (subject 1 (healthy donor), dose 100 μg/ml with 0.8% ethanol, 30 min 37° C.), 16.0 µg/mL; in data set [1] (subject 2 (healthy donor), dose 100 μg/ml with 0.8% ethanol), 28.6 µg/mL; in data set [1] (subject 3 (healthy donor), dose 100 μg/ml (H2O)), 0.2 µg/mL; in data set [1] (subject 4 (cancer patient), dose 100 μg/ml with 0.8% ethanol) it was 38.5 µg/mL.
Consider `CCO` [ethanol], for which the “C activation” value in data set [1] was “did not cause significant elevation of serum SC5b-9”. The SC5b-9 in data set [1] (subject 2 (healthy donor), dose 0.8% (final serum concentration)) is 3.2 µg/mL; in data set [1] (subject 3 (healthy donor), dose 0.4% (final serum concentration)) it was 0.5 µg/mL; in data set [1] (subject 4 (cancer patient), dose 0.8% (final serum concentration)), 6.6 µg/mL.
`COc1ccc2c(c1)c(CC(=O)O)c(C)n2C(=O)c1ccc(Cl)cc1` [indomethacin]: in data set [2], the “rise of PVR after liposomes with indomethacin treatment” value was 20%. Also, the “effect on pulmonary reaction to 5 mg liposome boluses” value in data set [3] (5 mg/kg i.v., all tested pigs) was “completely suppressed”.
As for “sCR1: Recombinant soluble complement receptor type 1”, in data set [4], the “dose providing complete suppression of Cremophor EL/ethanol-induced increase of SC5b-9” value came to 1.8 µg/mL and the “doses significantly inhibiting Cremophor EL/ethanol-induced increase of SC5b-9” value was greater than 0.6 µg/mL. Also, the “concentration range of potent inhibition of C-mediated harmful effects” value in data set [5] is 10 to 40 µg/mL. For the same compound, the “dose providing complete suppression of SC5b-9 formation” value in data set [6] (LEH-induced) was 20 µg/mL. The “doses significantly inhibiting LEH-induced complement activation” value in data set [6] is greater than 0.8 µg/mL. In data set [7], the “plasma clearance α-phase t1/2” value was 8.3 min, the “plasma clearance β-phase t1/2” value was 6.05 h and the “share of the drug clearing slowly” value was 31%. In addition, the “inhibition of PAP response to 5 mg liposome boluses” value in data set [3] (0.2 and 2 mg/kg i.v. (in 2-2 pigs), maximal inhibition) was 30-100%.
